Data reported in PMC6585443 (ACS infectious diseases, 2018).
≈ marks a conversion by molar mass, not a printed value. Values belong to the compound of their own block, whether it stands above or below them.

How the values were obtained:
[1] = system: human kinases involved in cellular proliferation; conditions: cited from earlier work
P. falciparum W2 = P. falciparum W2 antimalarial activity; assay type: cell-based, Plasmodium falciparum; conditions: less potent against W2 (CQ resistant) than D6
P. berghei = assay: modified Thompson in vivo infection model; conditions: mice, intraperitoneal 160 mg/kg/day × 3 days; for parasitemia: days 3 to 5 post-infection
[2] = aqueous solubility pH 7.4; assay type: physicochemical
P. falciparum D6 = P. falciparum D6 antimalarial activity; assay type: cell-based, Plasmodium falciparum; conditions: D6 strain
P. falciparum C235 = P. falciparum C235 antimalarial activity; assay type: cell-based, Plasmodium falciparum; conditions: less potent against C235 (CQ, MQ, pyrimethamine resistant) than D6
MAP4K4 = MAP4K4 (Homo sapiens, UniProt O95819); assay: human kinase panel at 5 μM; assay type: biochemical; conditions: test concentration 5 μM
[3] = rat hepatocyte intrinsic clearance; assay type: in vitro ADME; conditions: rat hepatocytes
Aurora A = target: T1, Aurora A (Homo sapiens, UniProt O14965); assay: human kinase panel at 5 μM; assay type: biochemical; conditions: test concentration 5 μM
T1 sequence (O14965 1-403): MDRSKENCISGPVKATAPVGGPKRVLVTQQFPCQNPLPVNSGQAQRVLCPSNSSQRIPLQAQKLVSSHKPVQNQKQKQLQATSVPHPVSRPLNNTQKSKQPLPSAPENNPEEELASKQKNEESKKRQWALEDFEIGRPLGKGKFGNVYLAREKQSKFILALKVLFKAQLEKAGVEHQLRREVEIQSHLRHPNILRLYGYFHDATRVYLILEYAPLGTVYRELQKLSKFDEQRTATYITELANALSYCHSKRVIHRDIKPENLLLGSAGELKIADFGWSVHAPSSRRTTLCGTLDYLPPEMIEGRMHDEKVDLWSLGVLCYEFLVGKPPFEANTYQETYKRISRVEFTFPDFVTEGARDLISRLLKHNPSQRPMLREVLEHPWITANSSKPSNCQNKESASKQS

EGFR = EGFR (Homo sapiens, UniProt P00533); assay: human kinase panel at 5 μM; assay type: biochemical; conditions: test concentration 5 μM
panel of human kinases = assay: human kinase panel at 5 μM; assay type: biochemical; conditions: test concentration 5 μM
Abl = Abl (Homo sapiens, UniProt P00519); assay: human kinase panel at 5 μM; assay type: biochemical; conditions: test concentration 5 μM
MNK2 = MNK2 (Homo sapiens, UniProt Q9HBH9); assay: human kinase panel at 5 μM; assay type: biochemical; conditions: test concentration 5 μM
KDR = KDR (Homo sapiens, UniProt P35968); assay: human kinase panel at 5 μM; assay type: biochemical; conditions: test concentration 5 μM
[4] = human liver microsome intrinsic clearance; assay type: in vitro ADME; conditions: liver microsomes
LogD7.4 = assay type: physicochemical; conditions: pH 7.4
[5] = aqueous solution at pH 7.4, pH 7.4, aqueous buffer

KDR, sequence (P35968 20-1356): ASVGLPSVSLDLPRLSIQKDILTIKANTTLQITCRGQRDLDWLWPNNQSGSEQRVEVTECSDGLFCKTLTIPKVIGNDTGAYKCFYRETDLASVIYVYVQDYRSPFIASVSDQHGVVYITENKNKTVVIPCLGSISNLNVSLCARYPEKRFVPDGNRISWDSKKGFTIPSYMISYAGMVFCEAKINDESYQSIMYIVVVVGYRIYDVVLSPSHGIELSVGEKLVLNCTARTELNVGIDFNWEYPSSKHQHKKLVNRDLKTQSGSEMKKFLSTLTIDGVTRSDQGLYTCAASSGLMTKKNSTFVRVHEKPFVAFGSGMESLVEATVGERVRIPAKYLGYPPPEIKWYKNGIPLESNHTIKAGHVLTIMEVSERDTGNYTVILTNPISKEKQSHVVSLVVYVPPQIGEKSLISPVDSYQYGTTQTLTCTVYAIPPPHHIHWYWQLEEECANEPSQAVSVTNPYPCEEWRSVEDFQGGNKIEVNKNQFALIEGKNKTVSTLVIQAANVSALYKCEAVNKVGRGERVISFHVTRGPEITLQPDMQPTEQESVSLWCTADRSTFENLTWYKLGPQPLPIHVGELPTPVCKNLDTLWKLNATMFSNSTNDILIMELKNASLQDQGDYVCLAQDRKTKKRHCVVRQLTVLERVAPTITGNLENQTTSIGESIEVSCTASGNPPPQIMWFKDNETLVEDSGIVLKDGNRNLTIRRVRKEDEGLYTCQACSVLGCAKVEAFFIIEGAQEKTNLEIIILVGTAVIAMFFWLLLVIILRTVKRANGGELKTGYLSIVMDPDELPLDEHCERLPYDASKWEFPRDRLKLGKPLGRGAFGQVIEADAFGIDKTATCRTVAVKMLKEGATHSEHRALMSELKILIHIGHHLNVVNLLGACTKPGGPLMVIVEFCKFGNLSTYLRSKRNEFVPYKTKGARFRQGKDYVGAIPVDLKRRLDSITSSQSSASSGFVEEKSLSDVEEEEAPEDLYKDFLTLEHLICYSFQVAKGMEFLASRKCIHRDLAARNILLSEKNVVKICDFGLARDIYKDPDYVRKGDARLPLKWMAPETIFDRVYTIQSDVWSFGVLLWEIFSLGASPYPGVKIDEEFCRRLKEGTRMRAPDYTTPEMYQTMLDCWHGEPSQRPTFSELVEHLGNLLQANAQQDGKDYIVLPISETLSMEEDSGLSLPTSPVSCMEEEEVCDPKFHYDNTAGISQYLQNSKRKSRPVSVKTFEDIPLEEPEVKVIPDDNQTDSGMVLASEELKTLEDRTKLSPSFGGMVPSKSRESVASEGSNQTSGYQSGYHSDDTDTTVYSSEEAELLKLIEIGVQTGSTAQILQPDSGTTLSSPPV
MAP4K4, sequence (O95819 whole entry): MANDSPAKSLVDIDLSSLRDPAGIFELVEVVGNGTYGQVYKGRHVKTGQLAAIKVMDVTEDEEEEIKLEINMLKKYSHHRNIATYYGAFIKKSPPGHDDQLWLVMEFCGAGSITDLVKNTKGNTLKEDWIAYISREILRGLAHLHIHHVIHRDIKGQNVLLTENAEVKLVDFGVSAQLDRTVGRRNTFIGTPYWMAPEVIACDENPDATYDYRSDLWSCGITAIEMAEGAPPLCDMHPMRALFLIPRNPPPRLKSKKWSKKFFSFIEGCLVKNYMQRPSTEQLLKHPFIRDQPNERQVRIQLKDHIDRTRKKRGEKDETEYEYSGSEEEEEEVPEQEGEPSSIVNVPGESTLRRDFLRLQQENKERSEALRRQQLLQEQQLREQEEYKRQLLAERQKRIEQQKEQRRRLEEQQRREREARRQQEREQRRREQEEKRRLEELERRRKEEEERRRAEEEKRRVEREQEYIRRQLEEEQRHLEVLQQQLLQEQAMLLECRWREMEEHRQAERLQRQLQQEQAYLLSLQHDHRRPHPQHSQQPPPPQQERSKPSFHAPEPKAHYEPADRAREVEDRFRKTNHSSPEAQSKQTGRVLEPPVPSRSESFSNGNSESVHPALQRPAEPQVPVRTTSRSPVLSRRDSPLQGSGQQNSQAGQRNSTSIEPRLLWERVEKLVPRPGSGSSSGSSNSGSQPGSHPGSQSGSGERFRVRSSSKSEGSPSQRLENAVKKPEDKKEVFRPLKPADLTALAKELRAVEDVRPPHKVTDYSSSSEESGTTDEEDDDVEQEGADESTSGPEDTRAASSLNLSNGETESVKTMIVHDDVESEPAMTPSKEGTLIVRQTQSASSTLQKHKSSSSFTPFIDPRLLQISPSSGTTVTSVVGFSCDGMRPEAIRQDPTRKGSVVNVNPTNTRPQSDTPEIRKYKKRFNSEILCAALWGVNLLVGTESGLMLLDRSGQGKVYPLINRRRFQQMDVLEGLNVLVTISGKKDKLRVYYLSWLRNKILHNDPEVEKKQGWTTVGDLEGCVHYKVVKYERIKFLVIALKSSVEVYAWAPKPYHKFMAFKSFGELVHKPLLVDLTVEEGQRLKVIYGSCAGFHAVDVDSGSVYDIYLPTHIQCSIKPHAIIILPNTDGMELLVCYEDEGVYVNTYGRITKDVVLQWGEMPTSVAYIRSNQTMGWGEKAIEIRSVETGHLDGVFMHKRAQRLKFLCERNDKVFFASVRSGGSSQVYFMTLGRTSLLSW
EGFR, sequence (P00533 25-1210): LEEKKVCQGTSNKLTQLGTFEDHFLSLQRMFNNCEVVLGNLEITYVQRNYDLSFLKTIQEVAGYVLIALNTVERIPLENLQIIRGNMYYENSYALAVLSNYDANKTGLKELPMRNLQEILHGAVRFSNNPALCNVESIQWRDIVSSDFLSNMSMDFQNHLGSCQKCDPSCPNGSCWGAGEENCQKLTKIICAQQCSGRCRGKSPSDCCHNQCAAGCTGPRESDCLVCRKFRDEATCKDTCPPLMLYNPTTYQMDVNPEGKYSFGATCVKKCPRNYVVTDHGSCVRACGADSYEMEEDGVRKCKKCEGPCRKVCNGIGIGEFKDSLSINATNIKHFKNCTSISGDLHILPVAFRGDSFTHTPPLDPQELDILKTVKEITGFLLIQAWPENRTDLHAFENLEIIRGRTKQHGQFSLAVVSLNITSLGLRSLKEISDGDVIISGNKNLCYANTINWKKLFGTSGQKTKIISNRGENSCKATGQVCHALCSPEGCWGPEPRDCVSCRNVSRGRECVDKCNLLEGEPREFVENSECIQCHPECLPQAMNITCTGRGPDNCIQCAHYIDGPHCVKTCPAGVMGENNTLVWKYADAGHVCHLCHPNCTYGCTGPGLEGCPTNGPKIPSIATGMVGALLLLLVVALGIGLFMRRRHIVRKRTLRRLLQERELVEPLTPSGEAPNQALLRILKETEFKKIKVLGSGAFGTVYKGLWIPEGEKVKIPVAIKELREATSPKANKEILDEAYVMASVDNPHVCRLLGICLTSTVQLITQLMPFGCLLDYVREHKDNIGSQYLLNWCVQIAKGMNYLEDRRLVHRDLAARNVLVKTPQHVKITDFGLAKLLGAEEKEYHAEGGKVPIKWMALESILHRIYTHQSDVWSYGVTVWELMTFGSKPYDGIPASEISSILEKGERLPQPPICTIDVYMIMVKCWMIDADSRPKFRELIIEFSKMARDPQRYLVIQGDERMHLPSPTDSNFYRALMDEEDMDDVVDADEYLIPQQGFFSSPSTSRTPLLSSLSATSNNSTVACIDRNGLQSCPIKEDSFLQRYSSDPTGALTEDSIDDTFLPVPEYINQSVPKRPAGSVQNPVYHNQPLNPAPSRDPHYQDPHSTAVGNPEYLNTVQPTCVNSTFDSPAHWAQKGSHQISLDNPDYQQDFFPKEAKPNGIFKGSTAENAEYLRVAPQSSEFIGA
MNK2, sequence (Q9HBH9 whole entry): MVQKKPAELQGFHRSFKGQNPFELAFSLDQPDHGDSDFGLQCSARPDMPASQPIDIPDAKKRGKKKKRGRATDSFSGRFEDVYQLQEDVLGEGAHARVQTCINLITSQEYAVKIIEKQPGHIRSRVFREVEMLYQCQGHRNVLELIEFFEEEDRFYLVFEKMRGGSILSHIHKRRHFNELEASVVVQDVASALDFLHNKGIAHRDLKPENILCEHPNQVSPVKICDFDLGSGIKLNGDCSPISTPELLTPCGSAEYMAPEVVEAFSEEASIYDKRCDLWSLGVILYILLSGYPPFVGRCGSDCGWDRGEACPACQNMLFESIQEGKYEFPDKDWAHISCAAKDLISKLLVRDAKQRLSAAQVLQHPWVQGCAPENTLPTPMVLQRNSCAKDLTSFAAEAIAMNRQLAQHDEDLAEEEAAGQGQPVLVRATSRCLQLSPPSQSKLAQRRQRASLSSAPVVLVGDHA

SMILES: CS(=O)(=O)CCNCc1ccc(-c2ccc3ncnc(Nc4ccc(OCc5cccc(F)c5)c(Cl)c4)c3c2)o1 [Compound 1, lapatinib]
- selectivity versus numerous human kinases [1]: > 300 fold

- solubility ([2]; aqueous medium, pH 7.4, aqueous buffer): 100 µM (≈ 52.3 µg/mL)
SMILES: COc1ccc(Nc2ccnc3cc(-c4ccc(S(=O)(=O)N5CCN(C)CC5)cc4)ccc23)cc1Cl [Compound 7, N-(3-Chloro-4-methoxyphenyl)-7-{4-[(4-methylpiperazin-1-yl)sulfonyl]phenyl}quinolin-4-amine]
- activity against W2 strain relative to D6 (fold) (P. falciparum W2): > 3 fold
- life extension compared to the control group (P. berghei): 5 days
- parasitemia (P. berghei): reduction in parasitemia

SMILES: Cc1ccc(Nc2ccnc3cc(-c4ccc(S(=O)(=O)N5CCN(C)CC5)cc4)ccc23)cc1Cl [Compound 11, N-(3-Chloro-4-methylphenyl)-7-{4-[(4-methylpiperazin-1-yl)sulfonyl]phenyl}quinolin-4-amine]
- activity against W2 strain relative to D6 (fold) (P. falciparum W2): > 3 fold

SMILES: CN1CCN(S(=O)(=O)c2ccc(-c3ccc4c(Nc5cccnc5)ccnc4c3)cc2)CC1 [Compound 12, 7-{4-[(4-Methylpiperazin-1-yl)sulfonyl]phenyl}-N-(pyridin-3-yl)quinolin-4-amine]
- reduction in potency compared to 3 (P. falciparum D6): 10 fold

SMILES: CN1CCN(S(=O)(=O)c2ccc(-c3ccc4c(Nc5cnccn5)ccnc4c3)cc2)CC1 [Compound 14, 7-{4-[(4-Methylpiperazin-1-yl)sulfonyl]phenyl}-N-(pyrazin-2-yl)quinolin-4-amine]
- activity against W2 strain relative to D6 (fold) (P. falciparum W2): > 3 fold

SMILES: CN1CCN(S(=O)(=O)c2ccc(-c3ccc4c(Nc5cnc(C#N)cn5)ccnc4c3)cc2)CC1 [Compound 19, 5-[(7-{4-[(4-Methylpiperazin-1-yl)sulfonyl]phenyl}quinolin-4-yl)amino]pyrazine-2-carbonitrile]
- activity against W2 strain relative to D6 (fold) (P. falciparum W2): > 3 fold

SMILES: CN1CCN(S(=O)(=O)c2ccc(-c3ccc4c(Nc5ncc(Cl)cn5)ccnc4c3)cc2)CC1 [Compound 21, N-(5-Chloropyrimidin-2-yl)-7-{4-[(4-methylpiperazin-1-yl)sulfonyl]phenyl}quinolin-4-amine]
- activity against W2 strain relative to D6 (fold) (P. falciparum W2): > 3 fold
- activity against C235 strain relative to D6 (fold) (P. falciparum C235): > 3 fold

SMILES: Cc1nnc(Nc2ccnc3cc(-c4ccc(S(=O)(=O)N5CCN(C)CC5)cc4)ccc23)nc1C [Compound 23, N-(Dimethyl-1,2,4-triazin-3-yl)-7-{4-[(4-methylpiperazin-1-yl)sulfonyl]phenyl}quinolin-4-amine]
- activity against W2 strain relative to D6 (fold) (P. falciparum W2): > 3 fold

SMILES: Cc1cc(Nc2ccnc3cc(-c4ccc(S(=O)(=O)N5CCN(C)CC5)cc4)ccc23)sn1 [Compound 24, N-(3-Methyl-1,2-thiazol-5-yl)-7-{4-[(4-methylpiperazin-1-yl)sulfonyl]phenyl}quinolin-4-amine]
- activity against W2 strain relative to D6 (fold) (P. falciparum W2): > 3 fold

SMILES: CN1CCN(c2nsnc2-c2ccc3c(Nc4ccc(OCc5cccc(F)c5)c(Cl)c4)ccnc3c2)CC1 [Compound 30, N-(3-Chloro-4-((3-fluorobenzyl)oxy)phenyl)-7-(4-(4-methylpiperazin-1-yl)-1,2,5-thiadiazol-3-yl)quinolin-4-amine]
- reduction in potency compared to 3 (P. falciparum D6): six-fold reduction in potency

SMILES: CC(C)(C)OC(=O)Nc1ccc2c(Nc3ccc(OCc4cccc(F)c4)c(Cl)c3)ccnc2c1 [Compound 36, Tert-butyl (4-((3-Chloro-4-((3-fluorobenzyl)oxy)phenyl)amino)quinolin-7-yl)carbamate]
- activity against W2 strain relative to D6 (fold) (P. falciparum W2): > 3 fold
- reduction in potency compared to 3 (P. falciparum D6): almost three-fold drop in potency

- inhibition of MAP4K4 (MAP4K4): significant inhibition
- Rat Hepatocyte CLint [3]: 130 μL/min/10^6
- inhibition of Aurora A (Aurora A): significant inhibition
- inhibition of EGFR (EGFR): significant inhibition
- number of kinases with insignificant inhibition (panel of human kinases): 28 kinases
- number of kinases with moderate to weak inhibition (panel of human kinases): 10 kinases
- inhibition of Abl (Abl): significant inhibition
- inhibition of MNK2 (MNK2): significant inhibition
- inhibition of KDR (KDR): significant inhibition
SMILES: CN1CCN(c2ncc(-c3ccc4c(Nc5cnccn5)ccnc4c3)cn2)CC1 [Compound 40, 7-(2-(4-Methylpiperazin-1-yl)pyrimidin-5-yl)-N-(pyrazin-2-yl)quinolin-4-amine]
- parasitemia (P. berghei): reduction in parasitemia

- Rat Hepatocyte CLint [3]: 45 μL/min/10^6
- solubility [2, 5]: < 1 µM
SMILES: COc1ccc(Nc2ccnc3cc(-c4cnc(N5CCN(C)CC5)nc4)ccc23)cc1Cl [Compound 41, N-(3-Chloro-4-methoxyphenyl)-7-(2-(4-methylpiperazin-1-yl)pyrimidin-5-yl)quinolin-4-amine]

- Rat Hepatocyte CLint [3]: 51 μL/min/10^6
- microsomal CLint [4]: 120 µL/min/mg
- logD (LogD7.4): 3.3
- solubility [2, 5]: < 1 µM
SMILES: CN1CCN(c2ncc(-c3ccc4c(Nc5ccc6[nH]nnc6c5)ccnc4c3)cn2)CC1 [Compound 42, N-(1H-Benzo[d][1,2,3]triazol-5-yl)-7-(2-(4-methylpiperazin-1-yl)pyrimidin-5-yl)quinolin-4-amine]

- Rat Hepatocyte CLint [3]: 5.0 μL/min/10^6
- microsomal CLint [4]: 130 µL/min/mg
- logD (LogD7.4): 2.6
- solubility [2, 5]: 1 µM (≈ 0.288 µg/mL)
SMILES: c1cnc(Nc2ccnc3cc(-c4cn[nH]c4)ccc23)cn1 [Compound 43, N-(Pyrazin-2-yl)-7-(1H-pyrazol-4-yl)quinolin-4-amine]

- Rat Hepatocyte CLint [3]: 5.0 μL/min/10^6
- microsomal CLint [4]: 8 µL/min/mg
- logD (LogD7.4): 3.5
- solubility [2, 5]: 2 µM (≈ 0.702 µg/mL)
SMILES: COc1ccc(Nc2ccnc3cc(-c4cn[nH]c4)ccc23)cc1Cl [Compound 44, N-(3-Chloro-4-methoxyphenyl)-7-(1H-pyrazol-4-yl)quinolin-4-amine]

- Rat Hepatocyte CLint [3]: 10 μL/min/10^6
- logD (LogD7.4): 2.2
SMILES: CN1CCN(c2ccc(Nc3ccc4c(Nc5cnccn5)ccnc4c3)cc2)CC1 [Compound 45, N^7-(4-(4-Methylpiperazin-1-yl)phenyl)-N^4-(pyrazin-2-yl)quinoline-4,7-diamine]

- Rat Hepatocyte CLint [3]: 9.3 μL/min/10^6
- logD (LogD7.4): 2.8
SMILES: CN1CCN(c2ccnc(Nc3ccc4c(Nc5cnccn5)ccnc4c3)n2)CC1 [Compound 46, N^7-(4-(4-Methylpiperazin-1-yl)pyrimidin-2-yl)-N^4-(pyrazin-2-yl)quinoline-4,7-diamine]

- Rat Hepatocyte CLint [3]: 7.2 μL/min/10^6
- logD (LogD7.4): 3.3
- solubility [2, 5]: 570 µM (≈ 271 µg/mL)
SMILES: COc1ccc(Nc2ccnc3cc(Nc4nccc(N5CCN(C)CC5)n4)ccc23)cc1Cl [Compound 47, N^4-(3-Chloro-4-methoxyphenyl)-N^7-(4-(4-methylpiperazin-1-yl)pyrimidin-2-yl)quinoline-4,7-diamine]

- logD (LogD7.4): 2.9
SMILES: CN1CCN(c2nccc(Nc3ccc4c(Nc5cnccn5)ccnc4c3)n2)CC1 [Compound 48, N^7-(2-(4-Methylpiperazin-1-yl)pyrimidin-4-yl)-N^4-(pyrazin-2-yl)quinoline-4,7-diamine]

- Rat Hepatocyte CLint [3]: 2.3 μL/min/10^6
- microsomal CLint [4]: 45 µL/min/mg
SMILES: COc1ccc(Nc2ccnc3cc(Nc4ccnc(N5CCN(C)CC5)n4)ccc23)cc1Cl [Compound 49, N^4-(3-Chloro-4-methoxyphenyl)-N^7-(2-(4-methylpiperazin-1-yl)pyrimidin-4-yl)quinoline-4,7-diamine]
